Here are results for eight compounds from patent US20240217960A1, “TRIAZINE DERIVATIVE AS COVALENT INHIBITORS OF PI3K” (UNIVERSITÄT BASEL, priority 2021, published 2024).

SMILES strings stand for the structures. Values after ≈ are worked out from the molar mass of the structure shown.

One data set is described as follows: Experimental LogD. Type of data set: physicochemical. Particulars: pH 7.4; 3 independent measurements.
For the next data set, the target named is p110α (PI3Kα) (Homo sapiens, UniProt P42336). Briefly: Determination of kinetic constants (kinact, Ki) for p110α by LanthaScreen Technology. The data set is classed as binding. The following applies: for Ki: dissociation constant of the first reversible binding, read-out: Ki PI3Kα; for Ki / kinact: global fitting with KinTek; for kinact: maximum potential rate of covalent bond formation, read-out: kinact PI3Kα; for kinact/KI: read-out: kinact/Ki PI3Kα. For orientation: Time-resolved FRET reads energy transfer from a long-lived donor to a nearby acceptor.

Data set [1] in a line: Intrinsic reactivity of the inhibitors (kchem) with βME measured with HPLC. The data set is classed as physicochemical. Particulars: 1 mM inhibitor + 600 mM βME, n = 3.
The next data set in a line: PBS solubility. Type of data set: physicochemical. Particulars: aqueous buffer, pH 7.4, 3 independent measurements.
For data set [2], the system named is pSer473 of PKB/Akt in SKOV3 cells. In words: In Cell Western cellular PI3K signaling and IC50 determination. The data set is classed as cell-based. Particulars: Homo sapiens, SK-OV-3; SKOV3 cells; 2 or 3 independent measurements; read-out: IC50 pPKB (S473) SKOV3. The protocol: Protein phosphorylation was detected as follows: pSer473 of PKB/Akt with rabbit polyclonal antibody from Cell Signaling Technology (CST) (#4058) by In-Cell Western assays, where 1.2×10^4 SKOV3 cells/well in 96-well plates were plated (Cell Carrier, PerkinElmer) for 24 hours (37° C., 5% CO2), as described in Ref. ^25.

p110α (PI3Kα), sequence (P42336 whole entry): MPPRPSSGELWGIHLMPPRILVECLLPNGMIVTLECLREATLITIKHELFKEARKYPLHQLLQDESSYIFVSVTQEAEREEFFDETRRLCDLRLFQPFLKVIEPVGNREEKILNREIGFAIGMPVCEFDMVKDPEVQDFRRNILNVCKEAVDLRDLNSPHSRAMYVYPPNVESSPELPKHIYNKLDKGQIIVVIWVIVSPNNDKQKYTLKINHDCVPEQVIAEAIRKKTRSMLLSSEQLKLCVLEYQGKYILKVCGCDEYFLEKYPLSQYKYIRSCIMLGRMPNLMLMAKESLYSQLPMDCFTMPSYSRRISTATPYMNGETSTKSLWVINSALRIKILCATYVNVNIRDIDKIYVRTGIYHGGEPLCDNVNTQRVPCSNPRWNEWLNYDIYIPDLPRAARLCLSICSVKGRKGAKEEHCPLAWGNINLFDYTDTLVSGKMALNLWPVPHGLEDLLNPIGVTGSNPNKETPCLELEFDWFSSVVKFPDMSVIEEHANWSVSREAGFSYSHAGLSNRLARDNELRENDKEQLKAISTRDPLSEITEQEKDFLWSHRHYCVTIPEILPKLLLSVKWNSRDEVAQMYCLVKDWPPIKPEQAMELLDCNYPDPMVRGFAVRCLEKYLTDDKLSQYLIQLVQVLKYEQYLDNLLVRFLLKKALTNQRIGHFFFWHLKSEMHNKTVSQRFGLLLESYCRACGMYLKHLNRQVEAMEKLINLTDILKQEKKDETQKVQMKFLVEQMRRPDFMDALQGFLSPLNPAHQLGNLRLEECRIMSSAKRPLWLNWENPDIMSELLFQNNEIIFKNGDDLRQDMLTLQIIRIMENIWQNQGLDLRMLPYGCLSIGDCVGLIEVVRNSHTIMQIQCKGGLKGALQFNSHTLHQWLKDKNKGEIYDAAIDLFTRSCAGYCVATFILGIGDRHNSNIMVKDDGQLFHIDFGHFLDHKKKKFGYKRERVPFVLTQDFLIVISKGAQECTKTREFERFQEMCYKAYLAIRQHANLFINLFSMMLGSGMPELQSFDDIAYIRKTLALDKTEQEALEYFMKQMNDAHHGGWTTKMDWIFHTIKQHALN
p110α (PI3Kα), sequence (P27986 whole entry partner): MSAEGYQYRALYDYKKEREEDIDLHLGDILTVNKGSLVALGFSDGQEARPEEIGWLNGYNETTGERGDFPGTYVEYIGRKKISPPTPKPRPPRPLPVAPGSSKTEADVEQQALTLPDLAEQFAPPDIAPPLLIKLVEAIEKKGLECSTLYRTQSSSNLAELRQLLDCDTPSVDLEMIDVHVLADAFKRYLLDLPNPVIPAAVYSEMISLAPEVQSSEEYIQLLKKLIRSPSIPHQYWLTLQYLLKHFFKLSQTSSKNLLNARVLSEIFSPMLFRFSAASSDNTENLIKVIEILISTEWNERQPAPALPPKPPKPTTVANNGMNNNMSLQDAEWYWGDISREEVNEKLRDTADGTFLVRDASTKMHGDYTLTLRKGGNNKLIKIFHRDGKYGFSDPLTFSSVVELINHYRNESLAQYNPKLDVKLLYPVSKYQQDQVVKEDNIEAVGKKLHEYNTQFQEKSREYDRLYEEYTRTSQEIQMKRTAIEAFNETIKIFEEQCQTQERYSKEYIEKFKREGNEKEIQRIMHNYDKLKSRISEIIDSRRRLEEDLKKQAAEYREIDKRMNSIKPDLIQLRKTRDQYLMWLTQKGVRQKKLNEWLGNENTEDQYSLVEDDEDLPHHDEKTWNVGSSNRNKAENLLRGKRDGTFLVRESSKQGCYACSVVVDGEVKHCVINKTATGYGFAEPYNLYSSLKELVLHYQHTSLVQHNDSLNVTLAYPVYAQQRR
Experimental for p110α (PI3Kα): Maximum potential rate of covalent bond formation (kinact) and dissociation constant of the first reversible binding (Ki) of compounds for p110α were determined by LanthaScreen Technology (Life Technologies). The calculation of kinetic parameters was carried out through global fitting for numerical integration by using KinTek Global Kinetic Explorer modelling software^26-31.

`C=CC(=O)N1CCC(C(=O)NCCN2CCN(c3nc(-c4cnc(N)nc4C(F)F)nc(N4CCOCC4)n3)CC2)CC1` [Compound 62, 1-acryloyl-N-(2-(4-(4-(2-amino-4-(difluoromethyl)pyrimidin-5-yl)-6-morpholino-1,3,5-triazin-2-yl)piperazin-1-yl)ethyl)piperidine-4-carboxamide]: the logD in the data set “Experimental LogD” came out at 1.4. Besides, at p110α (PI3Kα), the inhibition constant (Ki) was determined as 16.2 nM, the inactivation rate constant (kinact) came out at 0.000187 s⁻¹ and the kinact/KI was found to be 11600 M⁻¹ s⁻¹. Also, the “kchem (intrinsic reactivity of the inhibitors)” value in data set [1] worked out at 0.000518 M⁻¹ s⁻¹. Besides, in the data set “PBS solubility”, the solubility was determined as 393 µM (≈ 236 µg/mL). Further, the concentration for half-maximal inhibition (IC50) in data set [2] was found to be 82 nM.

Regarding `C=CC(=O)N1CCC(Cc2cccc(C(=O)N3CCN(c4nc(-c5cnc(N)nc5C(F)F)nc(N5CCOCC5)n4)CC3)c2)CC1` [Compound 101, 1-(4-(3-(4-(4-(2-amino-4-(difluoromethyl)pyrimidin-5-yl)-6-morpholino-1,3,5-triazin-2-yl)piperazine-1-carbonyl)benzyl)piperidin-1-yl)prop-2-en-1-one], in “Experimental LogD”, the pH-dependent lipophilicity (logD) was determined as 2.66. Besides, at p110α (PI3Kα), the Ki worked out at 10.5 nM, the inactivation rate constant (kinact) came to 0.00015 s⁻¹ and the kinact/KI was determined as 14300 M⁻¹ s⁻¹. In addition, the “kchem (intrinsic reactivity of the inhibitors)” value in data set [1] was 0.00029 M⁻¹ s⁻¹. Also, the concentration in solution in the data set “PBS solubility” (solubility) came to 46 µM (≈ 29.8 µg/mL). In addition, in data set [2], the IC50 was 43 nM.

Regarding `CC(C)=CC(=O)CCC(=O)N1CCN(Cc2cc3nc(-c4cccc5[nH]ncc45)nc(N4CCOCC4)c3s2)CC1` [CNX-1351, 1-[4-[[2-(1H-indazol-4-yl)-4-(4-morpholinyl)thieno[3,2-d]pyrimidin-6-yl]methyl]-1-piperazinyl]-6-methyl-5-heptene-1,4-dione, reference compound], the logD in the data set “Experimental LogD” came to 3.96. The “kchem (intrinsic reactivity of the inhibitors)” value in data set [1] came out at 0.000222 M⁻¹ s⁻¹. In the data set “PBS solubility”, this compound yielded a solubility of 10 µM (≈ 5.74 µg/mL).

`C=CC(=O)N1CCC(COCC(=O)N2CCN(c3nc(-c4cnc(N)nc4C(F)F)nc(N4CCOCC4)n3)CC2)CC1` [Compound 61, 1-(4-((2-(4-(4-(2-amino-4-(difluoromethyl)pyrimidin-5-yl)-6-morpholino-1,3,5-triazin-2-yl)piperazin-1-yl)-2-oxoethoxy)methyl)piperidin-1-yl)prop-2-en-1-one] returned a logD in “Experimental LogD” of 1.7. In addition, in data set [1], the “kchem (intrinsic reactivity of the inhibitors)” value was 0.00029 M⁻¹ s⁻¹. Besides, in “PBS solubility”, the solubility was 381 µM (≈ 230 µg/mL).

As for `C=CC(=O)N1CCC(C(=O)NCCCC(=O)N2CCN(c3nc(-c4cnc(N)nc4C(F)F)nc(N4CCOCC4)n3)CC2)CC1` [Compound 51, 1-acryloyl-N-(4-(4-(4-(2-amino-4-(difluoromethyl)pyrimidin-5-yl)-6-morpholino-1,3,5-triazin-2-yl)piperazin-1-yl)-4-oxobutyl)piperidine-4-carboxamide], at p110α (PI3Kα), the inhibition constant (Ki) worked out at 10.7 nM, the kinact worked out at 0.000195 s⁻¹ and the kinact/KI was found to be 18800 M⁻¹ s⁻¹. The “kchem (intrinsic reactivity of the inhibitors)” value in data set [1] turned out to be 0.000437 M⁻¹ s⁻¹. For the same compound, the half-inhibitory concentration (IC50) in data set [2] is 686 nM.

For `CN(C)C/C=C/C(=O)N1CCC(C(=O)N(C)CCC(=O)N2CCN(c3nc(-c4cnc(N)nc4C(F)F)nc(N4CCOCC4)n3)CC2)CC1` [Compound 58, (E)-N-(3-(4-(4-(2-amino-4-(difluoromethyl)pyrimidin-5-yl)-6-morpholino-1,3,5-triazin-2-yl)piperazin-1-yl)-3-oxopropyl)-1-(4-(dimethylamino)but-2-enoyl)-N-methylpiperidine-4-carboxamide], at p110α (PI3Kα), the inhibition constant Ki turned out to be 12.2 nM, the inactivation rate constant (kinact) stood at 0.000406 s⁻¹ and the kinact/KI came to 33600 M⁻¹ s⁻¹. Also, in data set [1], the “kchem (intrinsic reactivity of the inhibitors)” value was found to be 0.000386 M⁻¹ s⁻¹. For the same compound, the IC50 in data set [2] was 260 nM.

Consider `C=CC(=O)N1CCC(Cc2ccc(C(=O)N3CCN(c4nc(-c5cnc(N)nc5C(F)F)nc(N5CCOCC5)n4)CC3)cc2)CC1` [Compound 100, 1-(4-(4-(4-(4-(2-amino-4-(difluoromethyl)pyrimidin-5-yl)-6-morpholino-1,3,5-triazin-2-yl)piperazine-1-carbonyl)benzyl)piperidin-1-yl)prop-2-en-1-one], for which, on p110α (PI3Kα), the Ki came to 9.11 nM, the inactivation rate constant (kinact) was found to be 0.000123 s⁻¹ and the kinact/KI was determined as 13700 M⁻¹ s⁻¹. Besides, the “kchem (intrinsic reactivity of the inhibitors)” value in data set [1] amounted to 0.000324 M⁻¹ s⁻¹. For the same compound, the half-inhibitory concentration (IC50) in data set [2] amounted to 56 nM.

In “Experimental LogD”, `C=CC(=O)N1CCC(CCCC(=O)N2CCN(c3nc(-c4cnc(N)nc4C(F)F)nc(N4CCOCC4)n3)CC2)CC1` [Compound 41, 4-(1-acryloylpiperidin-4-yl)-1-(4-(4-(2-amino-4-(difluoromethyl)pyrimidin-5-yl)-6-morpholino-1,3,5-triazin-2-yl)piperazin-1-yl)butan-1-one] gave a log distribution coefficient (logD) of 2.67. In data set [1], the “kchem (intrinsic reactivity of the inhibitors)” value stood at 0.000225 M⁻¹ s⁻¹. Moreover, in the data set “PBS solubility”, the solubility turned out to be 243 µM (≈ 146 µg/mL).

In general, logD refers to lipophilicity at a set pH, counting ionised and neutral species. Lower therefore signals a more hydrophilic compound. One may read the Ki as the dissociation constant of the complex between target and ligand, obtained from inhibition or displacement. Broadly, the kinact is the rate constant of inactivation at saturating inhibitor. For orientation: solubility means how much of the substance goes into solution per volume. A high value points to much dissolved substance. A word on the IC50: it is the concentration that inhibits the measured activity by half.
